Laboratory results as given in patent US6541491B1, “4-mercaptopyrrolidine derivatives as farnesyl transferase inhibitors” (Zeneca Limited, priority 1995, dated 2003).
Where a name gives a salt, the structure may show the parent alone.

How the values were obtained:
[1] = target: T1, Farnesyl protein transferase (FPT) (Homo sapiens, UniProt P49354+P49356); test: Farnesyl protein transferase (FPT) inhibition, tritiated farnesyl pyrophosphate incorporation into ras-CVIM; assay type: biochemical; conditions: FPT partially purified from human placenta; 300 nM tritiated farnesyl pyrophosphate, 120 nM ras-CVIM, 20 minutes at 37°
T1 construct: partially purified from human placenta by ammonium sulphate fractionation; from tissue; host or cells: human placenta
Procedure: Biological activity was tested as follows. Farnesyl protein transferase (FPT) was partially purified from human placenta by ammonium sulphate fractionation followed by a single Q-Sepharose® (Pharmacia. Inc) anion exchange chromatography essentially as described by Ray and Lopez-Belmonte (Ray K P and Lopez-Belmonte J (1992) Biochemical Society Transations 20 494-497). The substrate for FPT was Kras (CVIM C-terminal sequence). The cDNA for oncogenic val 12 variant of human c-Ki-ras-24B was obtained from the plasmid pSW11-1(ATCC). This was then subcloned into the polylinker of a suitable expression vector e.g. plC 147. The Kras was obtained after expression in the E. coli strain, BL21. The expression and purification of c-KI-ras-24B and the vall2 variant in E. coli has also been reported by Lowe et al (Lowe P N et al. J. Biol. Chem. (1991) 266 1672-1678).
Incubations with enzyme contained 300 nM tritiated farnesyl pyrophosphate (DuPont/New England Nuclear), 120 nM ras-CVIM, 50 mM Tris HCl pH 8.0. 5 mM MgCl2, 10 μM ZnCl2, 5 mM dithiotheitol and compounds were added at appropriate concentrations in DMSO (3% final concentration in test and vehicle control). […] Precipitated protein was then collected onto glass fibre filter mats (B) using a Tomtec® cell harvester and tritiated label was measured in a Wallac® 1204 Betaplate scintillation counter.

Row | IC50 [1] [nM] | melting point [°C] | SMILES
1 | ~500 | – | C=CCOC(=O)c1cc(NC(=O)[C@@H]2C[C@H](SC(C)=O)CN2C(=O)OCc2ccc([N+](=O)[O-])cc2)cc(C(=O)N(C)OC)c1 [Example 7, 5 {[(2S,4S),4-acetylsulfanyl-1-(4-nitro-benzyloxycarbonyl)-pyrrolidine-2-carbonyl]-amino}-3(N-methyl-methoxycarbamoyl)-benzoic acid allyl ester]
2 | – | 101 to 105 | O=C(NCc1ccc(Cl)c(Cl)c1)c1ccc(C(=O)NC[C@@H]2C[C@H](S)CN2)nc1 (as salt: salt) [Example 13, 5-[N-(3,4-dichlorobenzyl)carbamoyl]-N-((2S,4S)-4-sulfanylpyrrolidin-2-yl-methyl)pyridine-2-carboxamide]
